The results in this text go back to patent US20160159789A1, “SUBSTITUTED PYRAZOLOPYRIDINES” (BAYER PHARMA AKTIENGESELLSCHAFT, priority 2013, published 2016).

As a reminder, the IC50 is the concentration that gives 50% inhibition.

T1 sequence (Q9BUB5 1-424 isoform Q9BUB5-2 T344D): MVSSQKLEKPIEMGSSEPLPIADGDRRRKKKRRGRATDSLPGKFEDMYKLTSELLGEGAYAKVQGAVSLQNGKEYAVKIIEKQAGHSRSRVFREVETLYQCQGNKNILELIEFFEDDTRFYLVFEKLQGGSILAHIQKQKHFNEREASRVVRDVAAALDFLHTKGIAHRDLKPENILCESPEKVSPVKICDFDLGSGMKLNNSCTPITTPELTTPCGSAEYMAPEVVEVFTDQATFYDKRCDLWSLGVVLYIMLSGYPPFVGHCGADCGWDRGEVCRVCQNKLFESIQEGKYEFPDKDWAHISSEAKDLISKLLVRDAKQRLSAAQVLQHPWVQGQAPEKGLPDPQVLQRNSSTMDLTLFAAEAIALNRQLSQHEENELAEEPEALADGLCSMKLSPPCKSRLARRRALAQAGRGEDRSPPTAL

This experiment has as its target T1, human full-length MKNK1 (Homo sapiens, UniProt Q9BUB5, T385D).
T1 construct: purchased Carna Biosciences 02-145; host or cells: insect cells (baculovirus expression system)
The experiment in a line: MKNK1 kinase high ATP assay (TR-FRET). The class given is biochemical. Particulars: high ATP (2 mM final), 15 min preincubation with enzyme, GST-MKNK1 (T344D). In short, it runs like this:
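GST-tagged full-length human MKNK1 from insect cells, preincubated 15 min with compound at 22° C in HEPES pH 7.5/MgCl2/DTT buffer, then reacted 30 min with 2 mM ATP and 0.06 μM biotinylated peptide (final). Phosphopeptide detected by TR-FRET (anti-pS6 pSer236/Eu-ProteinG, streptavidin-XL665), 665/620 ratio normalised to no-enzyme and no-inhibitor controls.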
(In TR-FRET formats the signal depends on donor and acceptor labels being close together.)
Molecule `O=C(c1[nH]c2ncnc(Nc3cc4cn[nH]c4cn3)c2c1Br)N1CCOCC1` [Example 71, [5-Bromo-4-(1H-pyrazolo[3,4-c]pyridin-5-ylamino)-7H-pyrrolo[2,3-d]pyrimidin-6-yl](morpholin-4-yl)methanone] had an IC50 of 0.0432 µM.

`C[C@@H]1CN(C(=O)[C@H]2CCc3c(sc4ncnc(Nc5cnc6[nH]ncc6c5)c34)C2)C[C@H](C)O1` [Example 105, [(2R,6S)-2,6-Dimethylmorpholin-4-yl][(7S)-4-(1H-pyrazolo[3,4-b]pyridin-5-ylamino)-5,6,7,8-tetrahydro[1]benzothieno[2,3-d]pyrimidin-7-yl]methanone] showed a concentration for half-maximal inhibition (IC50) of 0.0181 µM.

Molecule `COc1nc2[nH]ncc2cc1Nc1ncnc2sc(C(=O)N3CCCCC3)nc12` [Example 133, {7-[(6-Methoxy-1H-pyrazolo[3,4-b]pyridin-5-yl)amino][1,3]thiazolo[5,4-d]pyrimidin-2-yl}(piperidin-1-yl)methanone] returned an IC50 of 0.15 µM.

As to `CN(C)CCCN(C)C(=O)c1[nH]c2ncnc(Nc3cc4cn[nH]c4cn3)c2c1Br` [Example 119, 5-Bromo-N-[3-(dimethylamino)propyl]-N-methyl-4-(1H-pyrazolo[3,4-c]pyridin-5-ylamino)-7H-pyrrolo[2,3-d]pyrimidine-6-carboxamide], 0.0677 µM corresponded to half-maximal inhibition (IC50).

As to `CN(CCC(F)(F)F)C(=O)[C@H]1CCc2c(sc3ncnc(Nc4cc5cn[nH]c5nc4O)c23)C1` [Example 139, (7S)-4-[(6-Hydroxy-1H-pyrazolo[3,4-b]pyridin-5-yl)amino]-N-methyl-N-(3,3,3-trifluoropropyl)-5,6,7,8-tetrahydro[1]benzothieno[2,3-d]pyrimidine-7-carboxamide], half-maximal inhibition (IC50) required 0.0047 µM.

`CN(C)C(=O)C1CCc2[nH]c3ncnc(Nc4cnc5[nH]ncc5c4)c3c2C1` (racemic) [Example 30, (RS)—N,N-Dimethyl-4-(1H-pyrazolo[3,4-b]pyridin-5-ylamino)-6,7,8,9-tetrahydro-5H-pyrimido[4,5-b]indole-6-carboxamide] showed an IC50 of 0.0507 µM.

The molecule `O=C(c1[nH]c2ncnc(Nc3cnc4[nH]ncc4c3)c2c1Br)N1CCOCC1` [Example 74, [5-Bromo-4-(1H-pyrazolo[3,4-b]pyridin-5-ylamino)-7H-pyrrolo[2,3-d]pyrimidin-6-yl](morpholin-4-yl)methanone] yielded an IC50 of 0.14 µM.

With `O=C([C@H]1CCc2c(sc3ncnc(Nc4cnc5[nH]ncc5c4)c23)C1)N1CCOCC1` [Example 102, Morpholin-4-yl[(7S)-4-(1H-pyrazolo[3,4-b]pyridin-5-ylamino)-5,6,7,8-tetrahydro[1]benzothieno[2,3-d]pyrimidin-7-yl]methanone], the IC50 amounted to 0.027 µM.

`CN(C)C1CCN(C(=O)[C@H]2CCc3c(sc4ncnc(Nc5cc6cn[nH]c6nc5O)c34)C2)CC1` [Example 117, [4-(Dimethylamino)piperidin-1-yl]{(7S)-4-[(6-hydroxy-1H-pyrazolo[3,4-b]pyridin-5-yl)amino]-5,6,7,8-tetrahydro[1]benzothieno[2,3-d]pyrimidin-7-yl}methanone]: inhibition was half-maximal at 0.0014 µM (IC50).

The molecule `O=C(O)c1cc2c(Nc3cc4cn[nH]c4cn3)ncnc2[nH]1` [Example 11, 4-(1H-Pyrazolo[3,4-c]pyridin-5-ylamino)-7H-pyrrolo[2,3-d]pyrimidine-6-carboxylic acid] came in with a half-inhibitory concentration (IC50) of 0.0241 µM.
